This passage reports MIC results from ChEMBL document CHEMBL1150748, “Isolation of the antimicrobial alkaloid stemmadenine from Iraqi Rhazya stricta” (1988).

A word on the MIC: it is the smallest concentration in the dilution series that meets the test's criterion for growth inhibition. Low readings indicate greater potency, high ones weaker potency.

In brackets after ≈: the same amount, converted by molar mass.

Holding throughout (type): functional
The subject of one assay is Pseudomonas aeruginosa. As to the kind of experiment: Antimicrobial activity against Pseudomonas aeruginosa ATCC 9027.
The test system of a further assay is Escherichia coli. As to the kind of experiment: Antimicrobial activity against Escherichia coli ATCC 8739.
A further assay concerns Staphylococcus aureus. As to the kind of experiment: Antimicrobial activity against Staphylococcus aureus ATCC 6538.
Another assay concerns Candida albicans. As to the kind of experiment: Antimicrobial activity against Candida albicans ATCC 10231.

`CCCCCCCCCCCCC[N+](C)(C)Cc1ccccc1.[Cl-]` [BENZALKONIUM CHLORIDE]: the MIC turned out to be 8 µg/mL against Pseudomonas aeruginosa, 2.8 µg/mL against Escherichia coli, 0.32 µg/mL against Staphylococcus aureus and 1.8 µg/mL with Candida albicans.
With `C/C=C1/CN2CCc3c([nH]c4ccccc34)[C@@](CO)(C(=O)OC)[C@@H]1CC2` [STEMMADENINE], the MIC against Pseudomonas aeruginosa came out at 7.5 µg/mL (≈ 21.2 µM); against Escherichia coli, 1.25 µg/mL (≈ 3.53 µM); with Staphylococcus aureus, 5 µg/mL (≈ 14.1 µM); against Candida albicans it was 37.5 µg/mL (≈ 106 µM).
In the same order, the values of THIMEROSAL are 1.5 µg/mL, 0.6 µg/mL, 0.2 µg/mL and 0.1 µg/mL.
In the same order, the values of `CC(=O)O.CC(=O)O.NC(=N\CCCCCC/N=C(N)/N=C(\N)Nc1ccc(Cl)cc1)/N=C(\N)Nc1ccc(Cl)cc1` [CHLORHEXIDINE DIACETATE] are 1.5 µg/mL, 0.4 µg/mL, 0.2 µg/mL and 4.5 µg/mL.
